How the values were obtained:
[1] = Plasma concentrations of A1 and A2 after oral administration, rats; format: in vivo; settings: rat, n = 5; for concentration at 1.5 h: 1 H 30 MIN; for concentration: 3 H; for concentration at 0.25 h: 15 MIN; for concentration at 0.5 h: 30 MIN; for concentration at 0.75 h: 45 MIN
Experimental: (§1) The plasma absorption and clearance kinetics of the products A1 and A2 according to the invention were studied on different animal species after oral administration. A mixture A1 A2 in the proportions 70%/30% was used so as to be able to make a comparison with CNCC. The mixture A1 A2 and the CNCC were administered at equivalent doses and the plasma concentrations of A1 and A2 were measured as a function of time. cl (a) Experimental protocol
(§2) A solution of the mixture A1 A2 in distilled water is administered by stomach tube at a dose of 574 mg/m^2. A suspension of CNCC in olive oil is administered at a dose of 500 mg/m^2, also by stomach tube.
(§3) The blood, taken by cardiac puncture, is centrifuged rapidly at 4° C. The plasma (1 ml) is deposited on a cartridge of Extrelut® and extraction is carried out with 6 ml of methylene chloride. After evaporation, the dry extract is taken up in 150 μl of methylene chloride for chromatographic analysis.
(§4) Analysis of the plasma extracts for measuring the concentrations of A1 and A2 was performed by high performance liquid chromatography using the following technology:
(§5) Detector: Pye Unicam spectrophotometer (Philips)λ250 nm.
(§6) Elution carried out by means of a linear gradient ranging from methylene chloride 99.6%/ethanol 0.4% to methylene chloride 95%/ethanol 5% in 15 minutes

[2] = Pharmacokinetic comparison of mixture A1 A2 with CNCC, all animal species; format: in vivo, mice, rats and rabbits; settings: p.o.
Experimental: as §1, §2, §3, §4
The plasma concentrations of A1 and A2 after oral administration of either the mixture A1 A2 or CNCC to mice, rats and rabbits are reported in Table V.

leukemia L 1210 = test: Antitumoral activity of A1 and A2 on leukemia L 1210 grafted i.p. in mice (ICIG); format: in vivo, mice (B6 D2 F1 OLA)
Experimental: This activity was also studied on mice carrying leukemia L 1210 grafted i.p. This experimental tumor is the one most frequently used in the primary screening of cytostatic drugs.
These tests were conducted in parallel in two laboratories: at Unit 71 of the Institut National de la Sante et de la Recberche Mediecale (INSERM), ClermontFerrand, and at the Institut de Cancerologie et d' Immunogenetique (ICIG), Villejuif.
On day D:0, three-month-old male B6 D2 F1 mice received 10^5 cells of the leukemia strain L 1210 by intraperitoneal administration. The animals are divided up into groups of 8 to 10 animals for the control groups and 6 to 8 animals for the treated groups. On days D:1, D:5 and D:9, the animals receive the treatment at different doses by intraperitoneal or intravenous administration. The CNCC is administered as a suspension in olive oil. The products according to the invention are administered in physiological serum. The mortality is recorded every day. The survival median was determined for the treated animals and the control animals. The results are considered to be positive if the index I= [formula] is greater than 125.
The value .infin. means that 50% to 100% of the animals have survived to day D:90.
The cytostatic activity oi A1 and A2 on leukemia L 1210 was evaluated on B6 D2 F1 OLA mice at ICIG.
ICIG also studied the antitumoral activity of each isomer A1 and A2, separately administered intravenously, on leukemia L 1210. […] Comparison of the active doses with those of CNCC is impossible because of the insolubility of CNCC, as mentioned previously.

[3] = Plasma concentrations of A1 and A2 after oral administration, mice; format: in vivo; settings: mouse, n = 10; for concentration at 1.5 h: 1 H 30 MIN; for concentration: 3 H; for concentration at 4.5 h: 4 H 30 MIN; for concentration at 0.25 h: 15 MIN; for concentration at 0.5 h: 30 MIN; for concentration at 0.75 h: 45 MIN
Experimental: as §1, §2, §3, §4, §5, §6

[4] = Plasma concentrations of A1 and A2 after oral administration, rabbits; format: in vivo; settings: rabbit, n = 5; for concentration at 1.5 h: 1 H 30 MIN; for concentration: 3 H; for concentration at 4.5 h: 4 H 30 MIN; for concentration at 0.25 h: 15 MIN; for concentration at 0.5 h: 30 MIN; for concentration at 0.75 h: 45 MIN
Experimental: as §1, §2, §3, §4, §5, §6

[5] = after mixture A1 A2 574 mg/m^2 p.o.

SMILES: C[S+]([O-])CCNC(=O)N(CCCl)N=O (stereo not drawn) [Compound A2]
- concentration at 1.5 h ([1]; after CNCC 500 mg/m^2 p.o.): 11.4 µM
- concentration at 1 h ([1]; after CNCC 500 mg/m^2 p.o.): 8.1 µM
- concentration at 2 h ([1]; after CNCC 500 mg/m^2 p.o.): 6.4 µM
- concentration ([1]; after CNCC 500 mg/m^2 p.o.): 6.5 µM
- concentration at 4.5 h ([1]; after CNCC 500 mg/m^2 p.o., 4 H 30 MIN): 2.2 µM
- concentration at 5 min ([1]; after CNCC 500 mg/m^2 p.o.): 0.9 µM
- concentration at 0.25 h ([1]; after CNCC 500 mg/m^2 p.o.): 3.2 µM
- concentration at 0.5 h ([1]; after CNCC 500 mg/m^2 p.o.): 5.4 µM
- concentration at 0.75 h ([1]; after CNCC 500 mg/m^2 p.o.): 7.2 µM
- concentration at 1.5 h [1, 5]: 12.9 µM
- concentration at 1 h [1, 5]: 14.2 µM
- concentration at 2 h [1, 5]: 7.8 µM
- concentration [1, 5]: 2.9 µM
- concentration at 5 min [1, 5]: 8.5 µM
- concentration at 0.25 h [1, 5]: 17.7 µM
- concentration at 0.5 h [1, 5]: 22.5 µM
- concentration at 0.75 h [1, 5]: 11.4 µM
- bioavailability compared with CNCC (in words) [2]: greater than that of CNCC
- plasma concentrations after A1 A2 compared with after CNCC (in words) ([2]; equivalent doses, whatever the animal species): much higher
- plasma concentration after A1 A2 compared with after CNCC (in words) ([2]; preliminary data): considerably greater
- T/C × 100 (leukemia L 1210; 5 mg/kg i.v.): .infin. (50% to 100% of the animals have survived to day D:90)
- T/C × 100 (leukemia L 1210; 10 mg/kg i.v.): .infin. (50% to 100% of the animals have survived to day D:90)
- interval between doses for maximum efficacy (IDME) (leukemia L 1210; i.v.): presence of an IDME
- percentage of mice surviving to day D:100 (in words) (leukemia L 1210; i.v.): high percentage
- antitumoral activity (in words) (leukemia L 1210; i.v., isomers separately): high activity
- concentration at 1.5 h ([3]; after CNCC 500 mg/m^2 p.o.): 12.7 µM
- concentration at 1 h ([3]; after CNCC 500 mg/m^2 p.o.): 19 µM
- concentration at 2 h ([3]; after CNCC 500 mg/m^2 p.o.): 9.9 µM
- concentration ([3]; after CNCC 500 mg/m^2 p.o.): 6.7 µM
- concentration at 4.5 h ([3]; after CNCC 500 mg/m^2 p.o.): 3.5 µM
- concentration at 5 min ([3]; after CNCC 500 mg/m^2 p.o.): 5.3 µM
- concentration at 0.25 h ([3]; after CNCC 500 mg/m^2 p.o.): 13.2 µM
- concentration at 0.5 h ([3]; after CNCC 500 mg/m^2 p.o.): 35.7 µM
- concentration at 0.75 h ([3]; after CNCC 500 mg/m^2 p.o.): 16.5 µM
- concentration at 1.5 h [3, 5]: 10.8 µM
- concentration at 1 h [3, 5]: 29.9 µM
- concentration at 2 h [3, 5]: 6.3 µM
- concentration [3, 5]: 2.9 µM
- concentration at 4.5 h [3, 5]: 0.9 µM
- concentration at 5 min [3, 5]: 83 µM
- concentration at 0.25 h [3, 5]: 81.5 µM
- concentration at 0.5 h [3, 5]: 66.3 µM
- concentration at 0.75 h [3, 5]: 43.7 µM
- concentration at 1.5 h ([4]; after CNCC 500 mg/m^2 p.o.): 4.2 µM
- concentration at 2 h ([4]; after CNCC 500 mg/m^2 p.o.): 3.5 µM
- concentration ([4]; after CNCC 500 mg/m^2 p.o.): 2 µM
- concentration at 4.5 h ([4]; after CNCC 500 mg/m^2 p.o.): 1 µM
- concentration at 5 min ([4]; after CNCC 500 mg/m^2 p.o.): 1.8 µM
- concentration at 0.25 h ([4]; after CNCC 500 mg/m^2 p.o.): 5 µM
- concentration at 0.5 h ([4]; after CNCC 500 mg/m^2 p.o.): 6 µM
- concentration at 0.75 h ([4]; after CNCC 500 mg/m^2 p.o.): 5.5 µM
- concentration at 1.5 h [4, 5]: 9.2 µM
- concentration at 1 h ([4]; after mixture A1 A2 574 mg/m^2 p.o., 1 H): 14.2 µM
- concentration at 2 h [4, 5]: 6.3 µM
- concentration [4, 5]: 2.9 µM
- concentration at 4.5 h [4, 5]: 0.7 µM
- concentration at 5 min [4, 5]: 11 µM
- concentration at 0.25 h [4, 5]: 11.7 µM
- concentration at 0.5 h [4, 5]: 16.5 µM
- concentration at 0.75 h [4, 5]: 15 µM
